In PubChem BioAssay (NCI) one finds GI50 and TGI data, which are given here for twelve compounds.

Common to all, as to experiment: NCI anticancer screen, dose series, 48 h
The subject of assay [1] is 786-0 renal.
In assay [2] the test system is CAKI-1 renal.
Assay [3] relates to COLO 205 colon.
The subject of assay [4] is IGROV1 ovarian.
Assay [5] relates to NCI-H460 lung.
For assay [6], the system named is NCI/ADR-RES ovarian.
In assay [7] the test system is OVCAR-5 ovarian.
For assay [8], the system named is SF-295 CNS.
Assay [9] deals with SR leukemia.
The subject of assay [10] is UO-31 renal.

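Briefly, cells in 96-well plates were exposed to five compound concentrations for 48 h, and endpoints were estimated by linear interpolation. At the GI50, growth is halved. TGI denotes the concentration required for complete inhibition of growth.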 Some results are limits rather than exact numbers.

Consider `CC(C)(C)N1CC(OC(N)=O)C1`, for which the GI50 in [1] is above 100000 nM; in assay [2], above 100 µM; in assay [3], above 100000 nM; in [4], above 100000 nM; in assay [5], above 100 µM; in assay [6], above 100 µM. Further, the GI50 in assay [7] was above 100 µM; in assay [8] it was above 100 µM; in [9] it was above 100 µM; in assay [10], above 100000 nM. The TGI in assay [1], in [2], in assay [3], in assay [4], in [5] and in assay [6] was above 100 µM in each case. The TGI in assay [7], in assay [8], in assay [9] and in [10] was above 100 µM throughout.

For `CC(=O)Nc1ccc2oc(=O)c3ccccc3c2c1`, the TGI in [1], in [2], in assay [3], in assay [4], in assay [5] and in assay [6] was above 100 µM each time. Besides, the TGI in assay [7], in assay [8], in [9] and in assay [10] was above 100 µM throughout.

As to `Cc1cccc2c1O/C(=C\c1ncc([N+](=O)[O-])n1C)C2=O`, the GI50 is 280 nM in [1]; 0.135 µM in assay [2]; 254 nM in assay [3]; 217 nM in assay [4]; 0.132 µM in [5]; 0.2 µM in assay [6]. Further, the GI50 was 0.576 µM in assay [7], 0.516 µM in assay [8] and 190 nM in assay [10]. Besides, the TGI turned out to be 0.969 µM in assay [1]; 0.479 µM in assay [2]; 1.42 µM in [3]; 2.92 µM in assay [4]; 0.581 µM in [5]; 0.783 µM in assay [6]. Besides, the TGI came out at 4.45 µM in assay [7], 2.62 µM in assay [8], 0.0699 µM in [9] and 0.708 µM in assay [10].

On to `COC1OC(CBr)C(OC(c2ccccc2)(c2ccccc2)c2ccccc2)C(OC(c2ccccc2)(c2ccccc2)c2ccccc2)C1OC(c1ccccc1)(c1ccccc1)c1ccccc1` (configuration not stated), for which the TGI in [1], in [2], in [3], in [4], in assay [5] and in [6] was above 100 µM in each case. Moreover, the TGI is above 100 µM in assay [7], above 100 µM in [8], above 100 µM in [9] and 36.8 µM in assay [10].

Consider `COc1cc(C)[nH]c(=O)c1CN1CCc2c(Cl)cc([C@H](OC)C3COC3)c(Cl)c2C1=O`, for which the GI50 in assay [1] was above 100000 nM; in [2] it was above 100 µM; in [3], above 100000 nM; in assay [4], above 100000 nM; in [5], above 100 µM; in assay [6] it was above 100 µM. The GI50 in assay [7] is above 100 µM; in assay [8], above 100 µM; in assay [9], above 100 µM; in [10] it was above 100000 nM. Besides, the TGI in [1], in [2], in assay [3], in [4], in assay [5] and in assay [6] was above 100 µM in each case. The TGI in [7], in [8], in assay [9] and in [10] was above 100 µM throughout.

In the case of `NC1=NC(c2ccccc2)CC(c2cc(Cl)cc(Br)c2O)=N1` (configuration not stated), the TGI in [1] is 31.5 µM; in [2], 26.8 µM; in [3], 25.6 µM; in assay [4] it was 30.8 µM; in assay [5], 19.9 µM; in assay [6], 29.9 µM. In addition, the TGI was 34.4 µM in [7], 23.7 µM in assay [8], above 100 µM in assay [9] and 32.3 µM in [10].

As for `COc1ccccc1N1CCN(C(=O)c2ccc(NS(=O)(=O)c3cccc4cccnc34)cc2)CC1`, the GI50 in assay [1] was above 61700 nM; in assay [2] it was above 100 µM; in assay [3], above 100000 nM; in assay [4], above 78400 nM; in assay [5] it was above 100 µM; in assay [6], above 100 µM. The GI50 is above 100 µM in assay [7], above 39 µM in assay [8], above 100 µM in [9] and above 100000 nM in assay [10]. The TGI in assay [1], in assay [2], in assay [3], in [4], in assay [5] and in assay [6] was above 100 µM in each case. Further, the TGI in assay [7], in assay [8], in assay [9] and in assay [10] was above 100 µM in each case.

On to `N#C/C(=C/C=C/c1ccccc1)S(=O)c1ccccc1` (configuration not stated), for which the GI50 in [1] is 322 nM; in assay [2], 0.418 µM; in assay [3] it was 482 nM; in [4], 467 nM; in assay [5] it was 0.506 µM; in assay [6] it was 0.369 µM. Also, the GI50 in [7] is 0.3 µM; in [8], 1.44 µM; in assay [9], 0.281 µM; in assay [10] it was 400 nM. Besides, the TGI is 1.36 µM in assay [1]; 1.55 µM in assay [2]; 2.07 µM in [3]; 3 µM in assay [4]; 2.92 µM in assay [5]; 13.7 µM in [6]. Besides, the TGI was 1.07 µM in assay [7], 3.14 µM in assay [8], 4.51 µM in assay [9] and 3.08 µM in assay [10].

Turning to `O=C1c2cccc3cc([N+](=O)[O-])cc(c23)C(=O)N1CCN1CCCC1`, the GI50 in [1] was 280 nM; in [2], 0.216 µM; in assay [3] it was 648 nM; in [4] it was 276 nM; in assay [5], 0.161 µM; in assay [6], 0.871 µM. Besides, the GI50 in assay [7] was 1.78 µM; in [8], 0.227 µM; in [9], 0.0523 µM; in assay [10], 281 nM. Moreover, the TGI in [1] is 1.2 µM; in assay [2] it was 0.892 µM; in assay [3], 2.92 µM; in [4], 5.16 µM; in [5], 0.902 µM; in assay [7] it was above 19.7 µM. The TGI is 0.734 µM in assay [8] and 3.17 µM in assay [10].

With `CC1OC(O[C@H]2/C=C/C=C/C=C/C=C/C=C/C=C/C=C/[C@H](C)[C@@H](O)[C@@H](C)[C@H](C)OC(=O)C[C@H](O)C[C@H](O)CC[C@@H](O)[C@H](O)C[C@H](O)C[C@]3(O)C[C@H](O)[C@@H](C(=O)O)[C@H](C2)O3)C(O)C(N)C1O` (some centres not stated), the TGI in assay [1] worked out at 29.2 µM; in assay [2], 41.7 µM; in assay [3], 45.2 µM; in [4], 20.7 µM; in assay [5], 40.4 µM; in assay [6], 56.5 µM. For the same compound, the TGI is 62.3 µM in assay [7], above 72.8 µM in assay [8], 44.8 µM in assay [9] and 4.27 µM in assay [10]. Besides, the GI50 is 12.7 µM in assay [2]; 19.1 µM in assay [5]; 24.9 µM in assay [6]; 27.3 µM in assay [7]; above 61.3 µM in assay [8].

In the case of `CC1(C)CCC2(C(=O)O)CC[C@]3(C)C(=CCC4C5(C)CC[C@H](OC6OC(C(=O)O)C(O)C(OC7OC(CO)C(O)C(O)C7O)C6OC6OC(CO)C(O)C(O)C6O)C(C)(C)C5CCC43C)C2C1` (some centres not stated), the GI50 in assay [1] was above 100000 nM; in [2], above 100 µM; in [3], above 100000 nM; in [4] it was above 100000 nM; in assay [5], above 100 µM; in assay [6], above 100 µM. In addition, the GI50 is above 100 µM in assay [7], 31.1 µM in assay [8], 15.6 µM in [9] and 63500 nM in [10]. Further, the TGI in assay [1], in assay [2], in assay [3], in assay [4], in [5] and in assay [6] was above 100 µM in each case. Also, the TGI in [7], in [8], in [9] and in assay [10] was above 100 µM throughout.

As for `CC1=C(C(=O)NCC(C)O)CC(C(=O)NCC(C)O)=C(C)N1` (configuration not stated), the TGI in assay [1], in assay [2], in [3], in [4], in assay [5] and in assay [6] was above 100 µM in each case. The TGI in assay [7], in assay [8], in assay [9] and in assay [10] was above 100 µM in each case.
